Reference: patent publication US20260232684A1, “FLT3 INHIBITORS AND METHODS OF USING THE SAME” (BIOVENTURES, LLC, priority 2023, published 2026)

Assays:
[1] = tested on: normal donor bone marrow mononuclear cells (BM-MNC); test: Colony forming unit assay of normal bone marrow
Description: FIG. 2. […] Normal bone marrow mononuclear cells (BM-MNC) were purchased from StemCell Technologies. 30,000 cells were plated in methylcellulose with increasing concentrations of either gilteritinib, 1, or 2. Blast forming unit-erythroid (BFU-E) and colony forming unit-granulocyte (CFU-G) were counted after 14 days incubation. Assay was completed in triplicate with three independent blood donors. Data shown is cumulated from all independent experiments. Error bars show one standard deviation and p values compared to control were calculated using a Student's t-test. NS indicates an insignificant p value, * indicates p value≤0.05, ** indicates p value≤0.01, *** indicates p value≤0.001, **** indicates p value≤0.0001
Bone marrow mononuclear cells (BM-MNC) of healthy donors (n=3) were purchased from StemCell Technologies (Vancouver, Canada). Cells were plated in a 35 mm dish in triplicate with methylcellulose medium at a concentration previously determined to form approximately 100 total colonies, usually 30,000 cells/mL and containing the appropriate amount of drug. Dishes were incubated for 14-15 days and visually assessed for erythrocyte burst-forming units and granulocyte-macrophage colony-forming units.

[2] = tested on: Molm-14 F691L cells stably expressing firefly luciferase; test: Circulating tumor model, Molm14 F691L luciferase; assay type: in vivo; details: mice
Description: FIG. 7. […] Molm14 F691L stably expressing FLuc9 were engrafted in mice through tail vein injection. Mice were imaged once every three days.
Molm-14 F691L cells stably expressing firefly luciferase were injected into the tail vein of NSG mice and tumor growth was monitored through bioluminescence.

[3] = tested on: Molm14 D835Y cells; test: Cell viability assay (CellTiter GLO), Molm14 D835Y; assay type: cell-based, human; details: 48 hours
Description: (§1) FIG. 1. […] Cells were treated with inhibitor at increasing log doses (0.1 nM-10 μM) for 48 hours. Cell viability was analyzed through CellTiter GLO. […] Cells were exposed to increasing amounts of each drug for 2 hours. GAPDH1 represents loading control for phospho-ERK and ERK blots. GAPDH2 represents loading control for phosphor-STAT5, STAT5, phospho-S6 and S6. Each experiment was completed in triplicate. Representative images are shown.
(§2) FIG. 5. […] Cells were dosed with inhibitor at increasing log doses (0.1 nM-10 μM) for 48 hours. Cell viability was analyzed through CellTiter GLO.
(§3) MV-4-11 and parental Molm-14 cells were a gift from Dr. Scott Kogan (University of California, San Francisco). HL60 and K562 cell lines were obtained from Charles Sawyers. […] Stable Ba/F3 lines were generated by retroviral infection as previously described (5). All cell lines were tested to be mycoplasma free and human cell lines were authenticated through STR profiling completed at the University of California, Berkeley.
(§4) Each triplicate was either dosed with drug or DMSO vehicle control. Drug dosing was completed at log doses ranging from 0.1 nM-10 μM. Cell viability was assessed after 48 hours using CellTiter GLO (Promega). Viability values were normalized to the vehicle control average. Numerical IC50 values were calculated in GraphPad Prism 7.

[4] = tested on: Molm14 F691L cells; test: Cell viability assay (CellTiter GLO), Molm14 F691L; assay type: cell-based, human; details: 48 hours
Description: as §1, §2, §3, §4

activity in cell viability assay (IC50, FIG. 1A/5B), in words [3] | activity in cell viability assay (IC50, FIG. 1A/5B), in words [4] | Structure (SMILES) | impact on CFU-G counts/growth ([1]; equivalent multiples of Molm14 IC50, 14 days, three healthy donors) | impact on BFU-E counts/growth ([1]; human, 14 days) | maximally tolerated dose [2]
 |  | CCc1nc(C(N)=O)c(Nc2ccc(N3CCC(N4CCN(C)CC4)CC3)c(OC)c2)nc1NC1CCOCC1 [gilteritinib, reference compound] | substantial impairment in BFU-E and CFU-G counts at 50× and 100×IC50 | substantial impairment in BFU-E and CFU-G counts at 50× and 100×IC50 | 33 mg/kg
severely diminished activity | severely diminished activity | CC(C)(C)c1cc(NC(=O)Nc2ccc(-c3cn4c(n3)sc3cc(OCCN5CCOCC5)ccc34)cc2)no1 [quizartinib, reference compound] |  |  | 
